The source of these data is US10732174B2, “Three dimensional tissues for high-throughput assays” (INVIVOSCIENCES, INC., priority 2008, dated 2020).

Molecules are shown by their SMILES. “Also recorded” adds a separate entry of the source. Where two headings read alike, the source gives them in different places.

Series [1] deals with HTCs of REF-52 cells. The settings on record: for reduction of MTT signal: 24 hours. As for the experimental part: 3-(4,5-dimethylthiazol-2-yl)-2,5-diphenyltetrazolium (MTT, M-6494, Invitrogen) was used to quantify cell viability in the HTCs. At predetermined times following drug exposure, MTT was added to each well to achieve 0.5 mg/ml. MTT was left in the wells for 2 hr and then removed. The formazan dye that forms in the cells were then suspended in 500 μl of isopropanol (S77795, Fisher Scientific) containing 0.1 N hydrochloric acid. Two hundred microliters of the formazan solution is then put into a 96-well plate well and read on the Synergy HT plate reader. Absorbance at 570 and 650 nm were recorded and the difference (A570-A650) was used as the absorbance intensity of the formazan.
All chemicals are from Sigma (Sigma-Alrich, St. Louis, Mo.) unless otherwise noted. […] DNP was diluted to 1 M in DMSO and then to 100, 10, and 1 mM in -F/G/P DMEM. Following HTC preconditioning and background force (i.e. pre-drug) measurement, 50 μl of the appropriate drug dilutions were added to each well to achieve the desired treatment concentration. Fifty microliters of -F/G/P DMEM was added to the control wells. Upon drug addition, medium in the wells was mixed by pipetting four times.
Finally to measure the compounds' effects on cellular viability, the assay using 3-(4,5-Dimethylthiazol-2-yl)-2,5-diphenyltetrazolium bromide (MTT) was performed. In cells, the yellow MTT is converted to a purple colored formazan by succinate dehydrogenase and this change can be quantified by light absorbance between 500-600 nm was quantitatively recorded using the plate reader.

For series [2], the system named is REF-52 cells. The conditions noted are these: for F-actin morphology in cells, microscopy: REF monolayers, 3 hr and 24 hr. How it is done:
REF-52 cells were plated on 35 mm culture dishes (50,000 cells) in 10% FBS medium (2 ml). Cells are incubated over night and then treated with compounds. […] Cells were incubated with drugs for 24 hours prior to fixing. To fix, treated cells were rinsed once with 2 ml of phosphate buffered saline (PBS, D5652) and then incubated in 1 ml of 4% paraformaldehyde (Sigma) solution (in PBS) for 30 min. Fixed cells are rinsed twice and then stored in 2 ml of PBS.
Fixed REF-52 cells were permeabilized by incubating in 1 ml of 0.1% Triton (BP151, Fisher Scientific) solution (in PBS) for 15 min. Permeabilized cells were rinsed twice with 1 ml TBST buffer and then blocked with 1 ml of 5% goat serum in TBST for 1 hour. One milliliter of 1:200 diluted Alexa 568 conjugated phalloidin (A12380, Invitrogen) in TBST with 2% goat serum was then added to the cells. This staining solution also contained 400 nM of DAPI (D9564). Cells were stained for 30 min and then rinsed twice with TBST. Labeled cells were mounted with Vectashield (Vector Laboratories, Burlingame, Calif.), covered with a cover slide and then sealed with nail polish. The plate was then inverted on to a Leica SP5 confocal microscope (Leica Microsystems, Bannockburn, Ill.) and imaged with 63× water immersion objective. Alexa 568 was excited using the 543 laser line and DAPI was excited using a MaiTai multi-photon laser.

Series [3] relates to F-actin in HTCs of REF-52 cells. In words: F-actin content of HTCs, Alexa-phalloidin, plate reader. Format: cell-based, rat. The conditions noted are these: HTC treated 24 hours. An excerpt: FIG. 5A-FIG. 5W. FIG. 5A is a photograph of The Palpator™. The system includes an isometric force transducer (a), probe baths (b), and a hydrogel tissue construct (HTC) stage (c) on a temperature regulator plate (d). FIG. 5B is a photograph showing the x-y-z motion robotic arm which positions the force transducer with attached probe above the HTCs and lowers the probe onto the tissue for force measurement. FIG. 5C is a schematic of the robotic arm with attached force transducer and probe. FIG. 5D is a photograph of the probe positioned 1 mm above the mid-plane of a HTC (a) and then lowered until it first touches (b) and then stretches (c) the tissue. FIG. 5E is a graph showing representative forces recorded during HTC indentation. Arrows a, b, and c show force measurements associated with probe positions shown in (D). […] HTCs were preconditioned, then treated with varying concentrations of the four drugs as indicated. Forces were measured at 3 (f) and 24 hr (g). Force measurements were expressed relative to control, medium treated, HTCs (Fc). […] HTCs treated with drugs for 24 hours were fixed and labeled with Alexa 568 conjugated phalloidin. Fluorescence intensity was read on a plate reader and plotted relative to control, media treated, HTCs (Ic). […] At 3 hr (i-m) and 24 hr (n-r, s-w) post treatment, representative monolayers were fixed and stained with Alexa 568 conjugated phalloidin and DAPI. […] Note the larger scale bar in (g) and (l). Images were captured on a Leica SP5 confocal microscope using a water-immersion 63× objective, scale bar=50 μm.
Tissue force is maintained through the integrity of the cellular cytoskeleton, especially actin and myosin. To quantify amount of F (filamentous)-actin in the HTCs treated with the compounds, the HTCs were stained with Alexa […] conjugated phalloidin. […] This is in agreement with our previous report that CD mediated reduction in tissue force was due to the loss of intact F-actin. However, force reductions by H1152 and DNP were not related to the loss of F-actin. […] By 24 hours, short F-actins were re-distributed within less-spread (FIG. 5O) and binuclear (FIG. 5T) cells.

In series [4] the test system is human epidermoid cell lines. The settings on record: reported; cited from earlier work.
Series [5] has as its system hydrogel tissue constructs (HTCs) of REF-52 cells. In words: HTC force measurement (Palpator). Format: cell-based, rat. The conditions noted are these: HTC; for effect on tissue (HTC contractile) force, in words: 3 and 24 hr. As for the experimental part: Rat embryonic fibroblasts (REF-52) were cultured in Dulbecco's Modified Eagle's Medium (DMEM, MT10013CM, Fisher Scientific, Pittsburgh, Pa.) supplemented with 10% fetal bovine serum (FBS, S11050, Atlanta Biologicals, Lawrenceville, Ga.). Cells were sub-cultured every two to three days. To make hydrogel tissue constructs (HTCs), REF-52 cells (between passages 40 to 70) were dissociated from culture plates by treating with 0.05% trypsin (MT-25-025-CI, Fisher Scientific) for 10 to 15 min. The cells were then centrifuged at 1000 g for 10 min. The trypsin solution was decanted and the cell pellet was re-suspended in 10% FBS DMEM medium. This cell suspension was diluted in HTC tissue solution to achieve a final concentration of 8×10^5 cells per ml. The HTC tissue solution consisted of 10% FBS DMEM, 1 mg/ml of type 1 collagen (354249, BD Biosciences, San Jose, Calif.) in 0.02 N acetic acid, sufficient sodium hydroxide to neutralize the acid in the collagen, and sufficient 5×DMEM to compensate for the volume of collagen and NaOH. To prevent premature collagen polymerization, the HTC tissue solution was kept on ice until its distribution into our custom-made tissue molds (FIG. 3). Each mold contains 8 separate HTC-forming wells with two built-in horizontal support bars. Three hundred microliters of the HTC tissue solution was aliquoted into each well in these molds and then incubated for 30 min at 37° C. and 5% CO2. After the incubation period, […] of 10% FBS DMEM medium was added to each well and the molds were further incubated for 48 hr. In this time, the solution contracted to form HTCs that span the support bars in the wells.
The Palpator™ (as described in U.S. Pat. No. 7,449,306, which is incorporated herein by reference in its entirety) was used to quantify the contractility of the HTCs. The molds were placed on the stage of the Palpator™ which automatically inserted a probe into each well and stretched the individual HTC. The probe was connected to a force transducer which measured the resistance force induced in the HTC in response to stretch and exported the values to a computer for recording. A custom Matlab algorithm was used to process and analyze the force data to report a numerical parameter that is indicative of the active cell force in the HTC. To obtain stable measurements of the HTC contractile force, it was necessary to precondition the HTCs by stretching three times prior to actual force measurement. Preconditioning was not necessary if subsequent force measurements were within 30 min of the previous stretch. HTCs at 24 hr post treatment were always pre-conditioned before force measurement.

The test system of series [6] is mitochondrial membrane potential in HTCs of REF-52 cells. In words: HTC TMRE labeling, mitochondrial potential. Format: cell-based, rat. The conditions noted are these: HTC, TMRE. As for the experimental part:
The ethyl ester of tetramethylrhodamine (TMRE, T-669, Invitrogen, Carlsbad, Calif.) was used to quantify the mitochondrial potential of the HTCs. HTCs were incubated in 100 nM TMRE for 30 min and then in phenol red free 10% FBS DMEM for 60 min. Phenol red free medium was used to prevent interference with TMRE fluorescence reading. Following labeling, HTCs were preconditioned with three stretches and then prior to background force measurement. HTC TMRE signal was then read on a Synergy HT plate reader (Biotek Instruments, Winooski, Vt.). A custom made adapter plate was used to position the tissue molds on the plate-holding rack of the plate reader. Fluorescence signal was read from the bottom using the 543/590 excitation/emission filter set and a gain setting of 50. TMRE fluorescence intensity was also read following each force measurement at predetermined time points after drug treatments.
TMRE is cationic and accumulates in the mitochondria as a function of MMP. […] More detailed investigation of DNP's effect on TMRE accumulation using confocal microscopy improved signal detection in both monolayers and HTCs (FIG. 6C and FIG. 6D).

Setting [7] is: 3 hr treatment, read-out: EC50 of tissue force reduction.

Usually EC50 stands for the concentration at which the effect is half-maximal.

For `C=C1[C@@H](C)[C@H]2[C@H](Cc3ccccc3)NC(=O)[C@]23[C@H](OC(C)=O)/C=C/[C@@](C)(O)C(=O)[C@@H](C)C/C=C/[C@H]3[C@@H]1O` [CD, Cytochalasin D], the “reduction of MTT signal” value in series [1] (0.2 μM) and in series [1] (2 μM) was 40% throughout. The “cytotoxicity signs in cell monolayers (confluency, nuclei, shrinkage)” value in series [2] (24 hours) is “cytotoxicity was evident”. Further, the “F-actin morphology in cells, microscopy” value in series [2] is recorded as “extensive actin depolymerization by 3 hr; also recorded: extensive disruption of F-actin as early as 3 hours”. The “F-actin content of HTCs (Alexa-phalloidin intensity)” value is on record as “significantly reduced” in series [3] and “reduced cellular F-actin” in series [3] (listed as Cytochalasin D). Further, in series [4], the LD50 is 5 to 30 µM. Further, in series [5], the “effect on tissue (HTC contractile) force, in words” value is “dose-dependently reduced HTC contractile force; also recorded: dose-dependently reduced tissue force; also recorded: very effective at reducing HTC force”. Further, in series [5] (setting [7]), the concentration for a half-maximal effect (EC50) was ~0.1 µM.

Take `Cc1cncc2cccc(S(=O)(=O)N3CCCNC[C@@H]3C)c12` [H-1152]: the “effect on mitochondrial potential, in words” value in series [6] (listed as RKI) was “limited mitochondrial and viability toxicity”; in series [6] (listed as RKI1), “minimal uncoupling activity”. Moreover, the “F-actin morphology in cells, microscopy” value is “did not dramatically affect F-actin morphology” in series [2] (listed as RKI) and “limited to no effects” in series [2] (listed as RKI1). In series [3], the “F-actin content of HTCs (Alexa-phalloidin intensity)” value is reported as “comparable to controls”. The “effect on tissue (HTC contractile) force, in words” value in series [5] is listed as “dose-dependently reduced tissue force”; in series [5] (listed as RKI), “very effective at reducing HTC force”; in series [5] (listed as RKI1) it was “dose-dependently reduced HTC contractile force; also recorded: effectively reduced tissue force”. The EC50 in series [5] (setting [7]) was ~0.1 µM; in series [5] (time not stated at place, read-out: force-reducing EC50) it was 0.1 µM.

Regarding `C[S+](C)[O-]` [DMSO, dimethyl sulfoxide], the “formazan absorbance relative to control (A/Ac)” value in series [1] (rat, 24 h, 10 %) is reported as 0.11±9×10^−3.
